Measurements from US20110319464A1, “METHODS FOR TREATING BENIGN PROSTATIC HYPERPLASIA” (KISSEI PHARMACEUTICAL CO., LTD., priority 2007, published 2011).

Assays:
[1] = system: symptoms of BPH; test: Study C: 4 mg or 8 mg Silodosin Once Daily (KMD-3213-US021-99), U.S. Phase 2 Study; type: in vivo, human; conditions: Study C, 8 mg once daily
Method: The 6-week stable dosing period was preceded by a 4-week placebo lead-in and a 2-week titration period. […] Male patients were selected who were at least 45 years of age with signs and symptoms of BPH (AUASS of 13 and maximum urine flow rate between 4 and 15 mL/sec). In addition, the results for IPSS/AUASS for studies A, B, D and E are illustrated in FIGS. 3 to 6, respectively, and the results for Qmax for studies A, B, D and E are illustrated in FIGS. 7 to 10, respectively.

[2] = clinical; conditions: male, human
[3] = system: symptoms of BPH; test: Study B: 4 mg Silodosin Twice Daily (KMD-303), Japanese Phase 3 Study; type: in vivo, human; conditions: 4 mg twice daily
Method: Safety was assessed by monitoring adverse events, clinical laboratory measurements, vital signs, and physical exams. […] In addition, the results for IPSS/AUASS for studies A, B, D and E are illustrated in FIGS. 3 to 6, respectively, and the results for Qmax for studies A, B, D and E are illustrated in FIGS. 7 to 10, respectively.

[4] = Pharmacokinetic Study on Silodosin (Study US011), once daily for seven days, fed state; conditions: for Cmax: Day 7, mean (SD)
[5] = system: symptoms associated with BPH; test: Efficacy Studies on Silodosin, studies A-E compared (once daily vs twice daily); type: in vivo, human; conditions: Tables 6 and 7
Source text: In addition, the results for IPSS/AUASS for studies A, B, D and E are illustrated in FIGS. 3 to 6, respectively, and the results for Qmax for studies A, B, D and E are illustrated in FIGS. 7 to 10, respectively.

[6] = immediate-release dosage form once daily, steady state

C[C@H](Cc1cc2c(c(C(N)=O)c1)N(CCCO)CC2)NCCOc1ccccc1OCC(F)(F)F [Silodosin]
Mean Change From Baseline (CFB) in Maximum Flow Rate ([1]; 2-6 hrs after 1st dose): 2.0 mL/s | IPSS/AUASS baseline value ([1]; Week 0): 20.8 | Maximum Flow Rate baseline value ([1]; Week 0): 9.6 mL/s | Mean Change From Baseline (CFB) in IPSS/AUASS ([1]; Week 1): −2.7 | Mean Change From Baseline (CFB) in Maximum Flow Rate ([1]; Week 1): 2.9 mL/s | Mean Change From Baseline (CFB) in IPSS/AUASS ([1]; Week 2): −4.3 | Mean Change From Baseline (CFB) in Maximum Flow Rate ([1]; Week 2): 2.9 mL/s | Mean Change From Baseline (CFB) in IPSS/AUASS ([1]; Week 5): −4.9 | Mean Change From Baseline (CFB) in Maximum Flow Rate ([1]; Week 5): 3.2 mL/s | Mean Change From Baseline (CFB) in IPSS/AUASS ([1]; Week 8): −6.8 | Mean Change From Baseline (CFB) in Maximum Flow Rate ([1]; Week 8): 3.4 mL/s | concentration at 12 h ([2]; in vivo, 8 mg): 9.45 ng/mL | Cmax ([2]; plasma, 4 mg): 27.6 ng/mL | Tmax ([2]; plasma, 4 mg): 2 h | concentration at 0.3 h ([2]; plasma, 4 mg): 0 ng/mL | concentration at 8 h ([2]; plasma, 4 mg): 4.83 ng/mL | concentration at 12.25 h ([2]; plasma, 4 mg): 1.8 ng/mL | concentration at 13 h ([2]; plasma, 4 mg): 9.77 ng/mL | concentration at 14 h ([2]; plasma, 4 mg): 31.5 ng/mL | concentration at 15 h ([2]; plasma, 4 mg): 32.5 ng/mL | concentration at 18 h ([2]; plasma, 4 mg): 7.89 ng/mL | concentration at 20 h ([2]; plasma, 4 mg): 5.93 ng/mL | half-life ([2]; plasma, 4 mg): 10.7 h | Cmax ([2]; plasma, 8 mg): 63.2 ng/mL | Tmax ([2]; plasma, 8 mg): 1.5 h | concentration at 145.5 h ([2]; plasma, 8 mg): 67.9 ng/mL | half-life ([2]; plasma, 8 mg): 11.2 h | concentration at 2 h ([2]; plasma, oral, 8 mg): 54.6 ng/mL | concentration at 3 h ([2]; plasma, oral, 8 mg): 42.8 ng/mL | concentration at 4 h ([2]; plasma, oral, 8 mg): 33.2 ng/mL | concentration at 6 h ([2]; plasma, oral, 8 mg): 18.5 ng/mL | Incidence of Adverse Events: Dizziness [3]: 2.3 % of patients | Incidence of Adverse Events: Orthostatic Hypotension [3]: 3.4 % of patients | Incidence of Adverse Events: Syncope [3]: 0 % of patients | IPSS/AUASS baseline value ([3]; Week 0): 17.1 | Maximum Flow Rate baseline value ([3]; Week 0): 9.89 mL/s | Mean Change From Baseline (CFB) in IPSS/AUASS ([3]; Week 1): −3.4 | Mean Change From Baseline (CFB) in IPSS/AUASS ([3]; Week 2): −4.9 | Mean Change From Baseline (CFB) in Maximum Flow Rate ([3]; Week 2): 2.23 mL/s | Mean Change From Baseline (CFB) in IPSS/AUASS ([3]; Week 4): −6.3 | Mean Change From Baseline (CFB) in Maximum Flow Rate ([3]; Week 4): 2.18 mL/s | Mean Change From Baseline (CFB) in IPSS/AUASS ([3]; Week 8): −7.7 | Mean Change From Baseline (CFB) in Maximum Flow Rate ([3]; Week 8): 2.38 mL/s | Mean Change From Baseline (CFB) in IPSS/AUASS ([3]; Week 12): −8.9 | Mean Change From Baseline (CFB) in Maximum Flow Rate ([3]; Week 12): 2.33 mL/s | AUC ([4]; 4 mg once daily, Day 1, mean): 169.0 ng/mL | Mean Tmax ([4]; 4 mg once daily, Day 7): 3.0 h | AUC ([4]; 4 mg once daily, Day 7, mean): 171 ng/mL | t ½ ([4]; 4 mg once daily, Day 7, mean): 12.5 h | Cmax ([4]; 4 mg once daily): 37.2 (18.7) ng/ml | AUC ([4]; 8 mg once daily, Day 1, mean): 413.0 ng/mL | AUC ([4]; 8 mg once daily, Day 7, mean): 396 ng/mL | t ½ ([4]; 8 mg once daily, Day 7, mean): 10.6 h | Cmax ([4]; 8 mg once daily): 73.4 (32.4) ng/ml | time after administration at which Cmax is reached [4, 6]: about 2 hours | time after administration at which plasma concentration falls to near baseline [4, 6]: about 12 hours | mean changes in IPSS/AUASS and Qmax, 8 mg once daily compared with 4 mg twice daily [5]: comparable
